# Experimental data as given in patent US20050085463A1 (priority 2003, published 2005).
# Where “and” joins values, the source holds several entries; their conditions need not be identical. Equal values may be shown once. Read-outs that look alike come from different tables or passages of the source.
# Assays:
# Ca^2+ channels = test: Ligand binding screen at 10 μM
# M3 muscarinic receptor = M3 muscarinic receptor (Homo sapiens, UniProt P20309); test: R-SAT agonist assay
# cFOS expression in brain = details: s.c. 7.5 and 30.0 mg/kg; two hours; western blotting (Young et al.); cited from earlier work
# M1 muscarinic receptor [1] = target: T1, M1 muscarinic receptor (Homo sapiens, UniProt P11229); test: cell-based
# T1 sequence (P11229 1-460): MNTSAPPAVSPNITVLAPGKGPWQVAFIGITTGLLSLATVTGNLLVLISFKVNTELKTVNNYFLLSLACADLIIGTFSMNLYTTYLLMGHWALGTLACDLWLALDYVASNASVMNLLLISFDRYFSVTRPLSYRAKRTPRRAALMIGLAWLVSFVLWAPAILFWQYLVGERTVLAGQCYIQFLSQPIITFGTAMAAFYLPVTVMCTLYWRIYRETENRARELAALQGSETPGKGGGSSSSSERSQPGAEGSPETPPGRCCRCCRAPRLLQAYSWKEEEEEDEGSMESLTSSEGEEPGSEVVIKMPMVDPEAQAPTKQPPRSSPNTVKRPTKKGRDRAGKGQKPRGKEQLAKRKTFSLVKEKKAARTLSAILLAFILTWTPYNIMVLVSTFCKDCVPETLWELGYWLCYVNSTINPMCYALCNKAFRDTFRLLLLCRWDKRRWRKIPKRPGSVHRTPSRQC
# [2] = Brain-to-plasma ratio in rats; type: in vivo; details: male, Sprague-Dawley, rat, po, 10 mg/kg, brain-to-plasma ratio of NDMC
# Description: The pharmacokinetics of clozapine and N-desmethylclozapine (NDMC) was evaluated in rats after intravenous (i.v.) and oral (p.o.) dosing. Cmax, Tmax and bioavailability after p.o. dosing and the volume of distribution (Vss), terminal plasma half-life (T1/2) and clearance (CLs) after i.v. dosing were determined. […] Animals were euthanised and brain and plasma samples obtained at 60 or 240 minutes post-dose, depending on study group. The levels of NDMC and clozapine were measured in each sample.
# The pharmacokinetic study described above included an initial assessment of the distribution of NDMC into brain.
# [3] = Serum levels during clozapine treatment of schizophrenic patients; type: in vivo, human
# Description: The analysis was adjusted for baseline level of symptom severity, age, and dose, since dose was not fixed. […] Regarding co-treatment with anticholinergic agents, only two subjects in this sample were treated with benztropine. […] Lastly, ten of the patients in this study were treated with benzodiazepines at the time the levels of clozapine and NDMC were measured.
# Patients were classified as treatment resistant or not by standard criteria (Kane et al 1988), and clinical ratings and neuropsychological test scores were obtained by trained raters who were blinded to plasma drug levels.
# α2 receptors = test: Ligand binding screen at 10 μM
# D1 receptors = D1 receptors (Homo sapiens, UniProt P21728); test: Ligand binding screen at 10 μM
# Chain of D1 receptors (P21728 whole entry): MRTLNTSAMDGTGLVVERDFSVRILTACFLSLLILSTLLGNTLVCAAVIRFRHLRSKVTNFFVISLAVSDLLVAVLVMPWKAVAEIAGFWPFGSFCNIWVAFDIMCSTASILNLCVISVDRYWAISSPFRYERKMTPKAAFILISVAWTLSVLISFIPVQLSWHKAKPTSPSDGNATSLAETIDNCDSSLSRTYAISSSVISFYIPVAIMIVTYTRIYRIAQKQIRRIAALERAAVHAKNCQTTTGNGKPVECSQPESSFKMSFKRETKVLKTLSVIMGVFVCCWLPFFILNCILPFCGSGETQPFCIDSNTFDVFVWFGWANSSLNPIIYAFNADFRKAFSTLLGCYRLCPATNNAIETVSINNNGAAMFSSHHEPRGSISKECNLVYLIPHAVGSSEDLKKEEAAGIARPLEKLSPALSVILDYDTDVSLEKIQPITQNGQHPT
# [4] = Pharmacokinetics after single i.v. or oral dose in rats; type: in vivo, Sprague-Dawley rats; details: rat; for bioavailability: read-out: BA (oral bioavailability)
# 5HT1B receptors = 5HT1B receptors (Homo sapiens, UniProt P28222); test: Ligand binding screen at 10 μM
# Chain of 5HT1B receptors (P28222 whole entry): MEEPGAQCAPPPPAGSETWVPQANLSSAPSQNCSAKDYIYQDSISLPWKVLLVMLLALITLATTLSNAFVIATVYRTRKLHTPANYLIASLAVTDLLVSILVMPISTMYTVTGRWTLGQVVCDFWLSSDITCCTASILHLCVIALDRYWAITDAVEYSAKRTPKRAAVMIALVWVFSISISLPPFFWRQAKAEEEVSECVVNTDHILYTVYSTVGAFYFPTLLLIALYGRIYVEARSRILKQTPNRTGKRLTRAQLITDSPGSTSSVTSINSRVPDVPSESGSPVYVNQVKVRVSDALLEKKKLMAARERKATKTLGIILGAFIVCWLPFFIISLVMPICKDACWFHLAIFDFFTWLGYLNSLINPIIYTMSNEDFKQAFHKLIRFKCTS
# M1 muscarinic receptor [5] = target: T1, M1 muscarinic receptor
# [6] = clozapine-treated schizophrenics
# [7] = clozapine-treated treatment resistant schizophrenics
# [8] = male, Sprague-Dawley, plasma, iv, 1 mg/kg, Plasma concentration after NDMC administration, NDMC i.v. 1 mg/kg, mean ± SD
# [9] = male, Sprague-Dawley, plasma, iv, 1 mg/kg, Plasma concentration of compound measured after clozapine administration, clozapine i.v. 1 mg/kg, mean ± SD
# [10] = male, Sprague-Dawley, plasma, po, 10 mg/kg, Plasma concentration after NDMC administration, NDMC p.o. 10 mg/kg, mean ± SD, two p.o. groups
# [11] = male, Sprague-Dawley, plasma, po, 10 mg/kg, Plasma concentration after NDMC administration, NDMC p.o. 10 mg/kg, mean ± SD
# [12] = male, Sprague-Dawley, plasma, po, 10 mg/kg, Plasma concentration of compound measured after clozapine administration, clozapine p.o. 10 mg/kg, mean ± SD
# [13] = NDMC p.o. 10 mg/kg, mean ± SD, two p.o. groups, 10 mg/kg
# Chain of M3 muscarinic receptor (P20309 whole entry): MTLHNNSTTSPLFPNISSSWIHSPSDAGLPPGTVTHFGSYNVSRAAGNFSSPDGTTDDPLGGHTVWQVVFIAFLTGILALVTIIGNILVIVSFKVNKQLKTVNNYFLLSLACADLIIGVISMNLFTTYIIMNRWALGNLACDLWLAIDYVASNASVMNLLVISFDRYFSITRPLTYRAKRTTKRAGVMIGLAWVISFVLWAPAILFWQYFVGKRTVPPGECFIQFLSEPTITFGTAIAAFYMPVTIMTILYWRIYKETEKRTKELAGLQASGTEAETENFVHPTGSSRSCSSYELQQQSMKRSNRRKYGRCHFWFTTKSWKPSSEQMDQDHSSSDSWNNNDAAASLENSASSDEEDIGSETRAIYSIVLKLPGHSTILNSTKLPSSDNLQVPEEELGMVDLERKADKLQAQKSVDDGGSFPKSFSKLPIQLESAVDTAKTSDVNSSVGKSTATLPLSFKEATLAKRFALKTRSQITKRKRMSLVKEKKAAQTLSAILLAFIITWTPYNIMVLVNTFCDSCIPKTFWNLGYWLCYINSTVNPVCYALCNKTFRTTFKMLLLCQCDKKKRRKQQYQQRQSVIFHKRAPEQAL
structure (smiles),measurement,setting,value
"Clc1ccc2c(c1)N=C(N1CCNCC1)c1ccccc1N2 [NDMC, 8-chloro-11-(1-piperazinyl)-5H-dibenzo [b,e][1,4] diazepine]","inhibition of binding, Ca^2+ channels",Ca^2+ channels,≥ 90%
same,EC50,"M3 muscarinic receptor; M3 pEC50, R-SAT agonist",0.324 µM and 0.316 µM
same,M3 Efficacy,"M3 muscarinic receptor; R-SAT, relative to carbachol, No response/nr = no agonist activity up to 10 μM",27 ± 4%
same,cFOS expression in brain regions,cFOS expression in brain,"induction of cFOS expression in the pre-frontal cortex and nucleus accumbens, but not in striatum"
same,Emax,"M1 muscarinic receptor [1]; CHO, read-out: M1 % Efficacy, PI hydrolysis, relative to carbachol",56%
same,EC50,"M1 muscarinic receptor [1]; M1 pEC50, PI hydrolysis, agonist",0.2 µM
same,EC50,"M1 muscarinic receptor [1]; potency, M1 agonist, PI hydrolysis, n=3",0.093 µM
same,Kp at 1 h,[2]; 60 minutes after oral 10 mg/kg NDMC,0.36 ± 0.16
same,Kp at 1 h,[2]; 60 minutes after oral clozapine,0.26 ± 0.07
same,Kp at 4 h,[2]; 240 minutes after oral 10 mg/kg NDMC,1 ± 0.4
same,Kp at 4 h,[2]; 240 minutes after oral clozapine,2.6 ± 0.8
same,"Serum level, All Subjects at 6 Months (92)",[3]; [6],235 ± 190 ng/mL
same,"Serum level, All Subjects at 6 Weeks (86)",[3]; [6],194 ± 136 ng/mL
same,"Serum level, Non-Responders (25)",[3]; [7],171 ± 123 ng/mL
same,"Serum level, Responders (26)",[3]; [7],308 ± 243 ng/mL
same,"Serum level, All TR Subjects (59)","[3]; clozapine-treated treatment resistant schizophrenics, drawn 12 hours after last clozapine dose",260 ± 203 ng/mL
same,"inhibition of binding, α2",α2 receptors,≥ 90%
same,inhibition at 10 µM,D1 receptors,≥ 90%
same,half-life,"[4]; male, Sprague-Dawley, plasma, iv, 1 mg/kg",39.3 min
same,concentration at 10 min,[4]; [8],540 ± 46 ng/mL
same,concentration at 30 min,[4]; [8],276 ± 30 ng/mL
same,concentration at 60 min,[4]; [8],126 ± 38 ng/mL
same,concentration at 120 min,[4]; [8],33.7 ± 11.4 ng/mL
same,concentration at 180 min,[4]; [8],11.7 ± 3.8 ng/mL
same,concentration at 240 min,[4]; [8],5.3 ± 0.3 ng/mL
same,concentration at 30 min,[4]; [9],2.8 ± 1.2 ng/mL
same,concentration at 60 min,[4]; [9],4 ± 1.5 ng/mL
same,concentration at 120 min,[4]; [9],2.3 ± 1 ng/mL
same,concentration at 180 min,[4]; [9],0.7 ± 0.1 ng/mL
same,concentration at 240 min,[4]; [9],0.8 ± 0.6 ng/mL
same,AUC,"[4]; male, Sprague-Dawley, plasma, iv, 1 mg/kg, after NDMC i.v. 1 mg/kg, read-out: Average AUC (converted)",456 ng·h/mL
same,Cmax,"[4]; male, Sprague-Dawley, plasma, iv, 1 mg/kg, after NDMC i.v. 1 mg/kg, read-out: Cmax",756 ng/mL
same,Tmax,"[4]; male, Sprague-Dawley, plasma, iv, 1 mg/kg, after NDMC i.v. 1 mg/kg, read-out: Tmax",0 min
same,AUC,"[4]; male, Sprague-Dawley, plasma, iv, 1 mg/kg, after clozapine i.v. 1 mg/kg, read-out: Average AUC of compound measured (converted)",8.16 ng·h/mL
same,Cmax,"[4]; male, Sprague-Dawley, plasma, iv, 1 mg/kg, after clozapine i.v. 1 mg/kg, read-out: Cmax of compound measured",3.99 ng/mL
same,Tmax,"[4]; male, Sprague-Dawley, plasma, iv, 1 mg/kg, after clozapine i.v. 1 mg/kg, read-out: Tmax of compound measured (converted)",60 min
same,Vd,"[4]; male, Sprague-Dawley, plasma, iv, 1 mg/kg, read-out: Vss",1.47 L/kg
same,concentration at 10 min,[4]; [10],305 ± 101 ng/mL
same,concentration at 30 min,[4]; [10],582 ± 265 ng/mL
same,concentration at 60 min,[4]; [10],481 ± 181 ng/mL
same,concentration at 120 min,[4]; [11],227 ± 75 ng/mL
same,concentration at 180 min,[4]; [11],170 ± 26 ng/mL
same,concentration at 240 min,[4]; [11],122 ± 54 ng/mL
same,concentration at 120 min,[4]; [12],42.5 ± 15.1 ng/mL
same,concentration at 180 min,[4]; [12],13.4 ± 2.54 ng/mL
same,concentration at 240 min,[4]; [12],7.1 ± 0.5 ng/mL
same,AUC,"[4]; male, Sprague-Dawley, plasma, po, 10 mg/kg, after NDMC p.o. 10 mg/kg, read-out: Average AUC (converted)",1140 ng·h/mL
same,AUC,"[4]; male, Sprague-Dawley, plasma, po, 10 mg/kg, after clozapine p.o. 10 mg/kg, read-out: Average AUC of compound measured (converted)",270 ng·h/mL
same,Tmax,"[4]; male, Sprague-Dawley, plasma, po, 10 mg/kg, after clozapine p.o. 10 mg/kg, read-out: Tmax of compound measured (converted)",30 min
same,bioavailability,"[4]; male, Sprague-Dawley, serum, oral, 10 mg/kg",~25%
same,Cmax,"[4]; male, Sprague-Dawley, serum, po, 10 mg/kg, after NDMC p.o. 10 mg/kg, read-out: Cmax",582 ng/mL
same,Tmax,"[4]; male, Sprague-Dawley, serum, po, 10 mg/kg, after NDMC p.o. 10 mg/kg, read-out: Tmax",≤ 30 min
same,Cmax,"[4]; male, Sprague-Dawley, serum, po, 10 mg/kg, after clozapine p.o. 10 mg/kg, read-out: Cmax of compound measured",194 ng/mL
same,bioavailability,"[4]; male, Sprague-Dawley, serum, po, 10 mg/kg",25%
same,"Plasma concentration after NDMC administration, 10 min",[4]; [13],277 ± 57 ng/mL
same,"Plasma concentration after NDMC administration, 30 min",[4]; [13],576 ± 161 ng/mL
same,"Plasma concentration after NDMC administration, 60 min",[4]; [13],614 ± 60 ng/mL
same,CLs,[4]; after NDMC i.v. 1 mg/kg,36.2 mL/min/kg
same,inhibition at 10 µM,5HT1B receptors,≥ 90%
same,"pKi, competitive antagonist",M1 muscarinic receptor [5]; PI hydrolysis in the presence of 3-micromolar carbachol,no response
same,M1 % Efficacy,"M1 muscarinic receptor [5]; PI hydrolysis, relative to carbachol, listed as N-desmethylclozapine",65 ± 10%
